Reference: patent US10899738B2 (THE REGENTS OF THE UNIVERSITY OF MICHIGAN, priority 2016, dated 2021)
Read-outs that look alike come from different tables or passages of the source.

What was measured:
[1] = target: menin protein (Homo sapiens (Human), UniProt O00255); assay: biochemical; type: binding; conditions: FP competitive binding; menin protein 4 nM, FAM-MM2 probe 2 nM; read-out: Menin Binding Affinity IC50
Outline: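 Test compounds displaced FAM-MM2 (2 nM) from 4 nM menin after 30 min equilibration at room temperature in PBS buffer containing bovine γ-globulin, 4% DMSO and Triton X-100. Binding was followed by fluorescence polarization. Competition curves were fitted by nonlinear regression to give IC50 and Ki.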

[2] = Cell growth inhibition, CellTiter-Glo Luminescent Cell Viability Assay; type: cell-based
Procedure: Cell growth inhibitory activity of representative menin inhibitors was determined using CellTiter-Glo® Luminescent Cell Viability Assay. Cells were seeded in 384-well white opaque cell culture plates at a density of 2,000 cells/well with serially diluted compounds and incubated at 37° C. in an atmosphere of 95% air and 5% CO2 for 4 days. Cell viability was determined using the CellTiter-Glo® Luminescent Cell Viability Assay Kit (Promega, Madison, Wis.) according to the manufacture's instruction. Briefly, a volume of CellTiter-Glo® Reagent equal to the volume of cell culture medium was added to each well, and then the plates were incubated at room temperature for 10-20 minutes. The luminescent signal was measured using a Tecan Infinite M1000 multimode microplate reader (Tecan, Morrisville, N.C.). The half maximal inhibitory concentration (IC50) was calculated using the GraphPad Prism 5 software (GraphPad Software, La Jolla, Calif.).

[3] = MOLM-13, 96 h, MOLM13 cells, 4 days, CellTiter-Glo, read-out: Cell Growth Inhibition IC50 (μM) MOLM13
[4] = MV4-11, 96 h, MV4, 11 cells, 4 days, CellTiter-Glo, read-out: Cell Growth Inhibition IC50 (μM) MV4, 11
[5] = MOLM-13, 96 h, read-out: Cell Growth Inhibition IC50 (μM) MOLM13, MOLM13 cells, 4 days, CellTiter-Glo
[6] = MV4-11, 96 h, read-out: Cell Growth Inhibition IC50 (μM) MV4, 11, MV4, 11 cells, 4 days, CellTiter-Glo

Sequence of menin protein (O00255 whole entry): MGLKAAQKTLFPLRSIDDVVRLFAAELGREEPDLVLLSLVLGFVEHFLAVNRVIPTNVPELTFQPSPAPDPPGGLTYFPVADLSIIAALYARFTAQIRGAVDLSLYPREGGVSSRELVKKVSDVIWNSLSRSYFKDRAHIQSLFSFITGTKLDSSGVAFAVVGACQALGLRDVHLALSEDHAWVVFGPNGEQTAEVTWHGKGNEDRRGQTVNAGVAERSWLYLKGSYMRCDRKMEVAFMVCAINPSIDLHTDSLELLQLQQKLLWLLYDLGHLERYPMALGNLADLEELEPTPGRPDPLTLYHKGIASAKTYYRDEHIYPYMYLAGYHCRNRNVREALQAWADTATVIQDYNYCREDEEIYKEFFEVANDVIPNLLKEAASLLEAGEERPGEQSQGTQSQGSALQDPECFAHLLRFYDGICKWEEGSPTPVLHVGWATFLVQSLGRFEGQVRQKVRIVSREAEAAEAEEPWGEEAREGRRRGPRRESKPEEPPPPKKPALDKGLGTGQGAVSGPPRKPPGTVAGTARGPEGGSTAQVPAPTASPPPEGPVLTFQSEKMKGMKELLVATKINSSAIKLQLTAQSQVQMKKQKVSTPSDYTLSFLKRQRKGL

SMILES	IC50 [1]	IC50 [2, 3]	IC50 [2, 4]	IC50 [2, 5]	IC50 [2, 6]	IC50 ([2]; MOLM13 cells, 4 days, CellTiter-Glo, read-out: Cell Growth Inhibition IC50 (μM) MOLM13)	IC50 ([2]; MV4, 11 cells, 4 days, CellTiter-Glo, read-out: Cell Growth Inhibition IC50 (μM) MV4, 11)
N#Cc1ccc(N2CC(CN3CCC(C4(C5CCCC5)CNCc5ccccc54)CC3)C2)cc1 (stereo not drawn) [compound 43, 4-(3-((4-(4-cyclopentyl-1,2,3,4-tetrahydroisoquinolin-4-yl)piperidin-1-yl)methyl)azetidin-1-yl)benzonitrile]	0.026 µM	2.1 µM	0.896 ± 0.056 µM				
CNS(=O)(=O)c1ccc(N2CC(CN3CCC(C4(C5CCCC5)NCCc5c(F)cccc54)CC3)C2)cc1 (stereo not drawn) [compound 119, 4-(3-((4-(1-cyclopentyl-5-fluoro-1,2,3,4-tetrahydroisoquinolin-1-yl)piperidin-1-yl)methyl)azetidin-1-yl)-N-methylbenzenesulfonamide]	0.015 µM	1.3 µM	1.8 µM				
CN(C)C(=O)N[C@H]1CCC[C@@H]1C(Cn1ccnc1)(c1ccccc1)C1CCN(CC2CN(c3ccc(S(=O)(=O)c4cnn(C)c4)cc3)C2)CC1 (mixture of isomers) [compound 376, rac-3-((1S,2R)-2-(2-(1H-imidazol-1-yl)-1-(1-((1-(4-((1-methyl-1H-pyrazol-4-yl)sulfonyl)phenyl)azetidin-3-yl)methyl)piperidin-4-yl)-1-phenylethyl)cyclopentyl)-1,1-dimethylurea]	0.006 µM			> 10 µM	10.5 ± 2.08 µM		
O=S(=O)(c1ccncc1)c1ccc(N2CC(CN3CCC(C4(C5CCCC5)CN(C5CCC5)Cc5ccccc54)CC3)C2)cc1 (stereo not drawn) [compound 49, 2-cyclobutyl-4-cyclopentyl-4-(1-((1-(4-(pyridin-4-ylsulfonyl)phenyl)azetidin-3-yl)methyl)piperidin-4-yl)-1,2,3,4-tetrahydroisoquinoline]	0.009 µM	4 µM	0.898 µM				
CNC(=O)O[C@H]1CCC[C@@H]1[C@](C#N)(c1ccccc1)C1CCN(CC2CN(c3ccc(S(=O)(=O)c4ccncc4)cc3)C2)CC1 (mixture of isomers) [compound 353, rac-(1S,2R)-2-((S)-cyano(phenyl)(1-((1-(4-(pyridin-4-ylsulfonyl)phenyl)azetidin-3-yl)methyl)piperidin-4-yl)methyl)cyclopentyl methylcarbamate]	0.006 µM			0.25 µM	0.075 µM		
CCN1Cc2ccccc2C(C2CCCC2)(C2CCN(CC3CN(c4ccc(S(=O)(=O)C(F)(F)F)cc4)C3)CC2)C1 (stereo not drawn) [compound 145, 4-cyclopentyl-2-ethyl-4-(1-((1-(4-((trifluoromethyl)sulfonyl)phenyl)azetidin-3-yl)methyl)piperidin-4-yl)-1,2,3,4-tetrahydroisoquinoline]	0.015 µM	3.3 ± 0.5 µM	1.6 ± 0.8 µM				
CCN1Cc2ccccc2C(C2CCCC2)(C2CCN(CC3CN(c4ccc(S(=O)(=O)C5CC5)cc4)C3)C(C)C2)C1 (stereo not drawn) [compound 95, 4-cyclopentyl-4-(1-((1-(4-(cyclopropylsulfonyl)phenyl)azetidin-3-yl)methyl)-2-methylpiperidin-4-yl)-2-ethyl-1,2,3,4-tetrahydroisoquinoline]	0.024 µM					1.9 µM	1.8 µM
COC(=O)N[C@H]1CCC[C@@H]1C(C#N)(c1ccccc1)C1CCN(CC2(F)CN(c3ccc(S(=O)(=O)c4cnn(C)c4)cc3)C2)CC1 (mixture of isomers) [compound 397, methyl rac-((1S,2R)-2-(cyano(1-((3-fluoro-1-(4-((1-methyl-1H-pyrazol-4-yl)sulfonyl)phenyl)azetidin-3-yl)methyl)piperidin-4-yl)(phenyl)methyl)cyclopentyl) carbamate]	0.186 µM			> 10 µM	4.54 µM		
CC(=O)O[C@H]1CCC[C@@H]1C1(C2CCN(CCCOc3ccc(C#N)cc3)CC2)CN(C)Cc2ccc(F)cc21 (mixture of isomers) [compound 314, rac-(1S,2R)-2-(4-(1-(3-(4-cyanophenoxy)propyl)piperidin-4-yl)-6-fluoro-2-methyl-1,2,3,4-tetrahydroisoquinolin-4-yl)cyclopentyl acetate]	0.031 µM			> 10 µM	2.97 µM		
CNC(=O)O[C@@H]1CCC[C@H]1[C@@](C#N)(c1ccccc1)C1CCN(CC2CN(c3ccc(S(=O)(=O)c4ccncc4)cc3)C2)CC1 (mixture of isomers) [compound 354, rac-(1R,2S)-2-((R)-cyano(phenyl)(1-((1-(4-(pyridin-4-ylsulfonyl)phenyl)azetidin-3-yl)methyl)piperidin-4-yl)methyl)cyclopentyl methylcarbamate]	0.062 µM			4.7 µM	1.3 µM		
O=S(=O)(CC1CCCCC1)c1ccc(N2CC(CN3CCC(C4(C5CCCC5)NCCc5ccccc54)CC3)C2)cc1 (stereo not drawn) [compound 93, 1-(1-((1-(4-((cyclohexylmethyl)sulfonyl)phenyl)azetidin-3-yl)methyl)piperidin-4-yl)-1-cyclopentyl-1,2,3,4-tetrahydroisoquinoline]	0.052 µM	1.1 ± 0.7 µM	0.779 ± 0.068 µM				
COC(=O)N[C@H]1CCC[C@@H]1C(C#N)(c1ccccc1)C1CCN(CC2CN(c3ccc(S(=O)(=O)C4CC4)cc3Cl)C2)CC1 (mixture of isomers) [compound 395, methyl rac-((1S,2R)-2-((1-((1-(2-chloro-4-(cyclopropylsulfonyl)phenyl)azetidin-3-yl)methyl)piperidin-4-yl)(cyano)(phenyl)methyl)cyclopentyl)carbamate]	0.016 µM			2.29 µM	0.65 µM		
CNC(=O)O[C@H]1CCC[C@@H]1C(C#N)(c1ccccc1)C1CCN(CC2CN(c3ccc(C(F)(F)F)cc3)C2)CC1 (mixture of isomers) [compound 367, rac-(1S,2R)-2-(cyano(phenyl)(1-((1-(4-(trifluoromethyl)phenyl)azetidin-3-yl)methyl)piperidin-4-yl)methyl)cyclopentyl methylcarbamate]	0.03 µM			2.96 µM	1.66 µM		
CNC(=O)O[C@H]1CCC[C@@H]1C(Cn1ccnc1)(c1ccccc1)C1CCN(CC2CN(c3ccc(Cl)cc3)C2)CC1 (mixture of isomers) [compound 407, rac-(1S,2R)-2-(1-(1-((1-(4-chlorophenyl)azetidin-3-yl)methyl)piperidin-4-yl)-2-(1H-imidazol-1-yl)-1-phenylethyl)cyclopentyl methylcarbamate]	0.005 µM			0.69 ± 0.089 µM	0.41 ± 0.28 µM		
CCN1Cc2ccccc2C(C2CCCC2)(C2CCN(CC3CN(c4ccc(S(=O)(=O)C5CC5)cc4Cl)C3)CC2)C1 (stereo not drawn) [compound 144, 4-(1-((1-(2-chloro-4-(cyclopropylsulfonyl)phenyl)azetidin-3-yl)methyl)piperidin-4-yl)-4-cyclopentyl-2-ethyl-1,2,3,4-tetrahydroisoquinoline]	0.023 µM	4 ± 0.7 µM	1.6 ± 1.1 µM				
CNC(=O)N[C@H]1CCC[C@@H]1C(C#N)(c1ccccc1)C1CCN(CC2CN(c3ccc(S(=O)(=O)c4ccncc4)cc3)C2)CC1 (mixture of isomers) [compound 269, rac-1-((1S,2R)-2-(cyano(phenyl)(1-((1-(4-(pyridin-4-ylsulfonyl)phenyl)azetidin-3-yl)methyl)piperidin-4-yl)methyl)cyclopentyl)-3-methylurea]	0.009 µM			1.73 µM	0.273 µM		
O=S(=O)(c1ccc(N2CC(CN3CCC(C4(C5CCCC5)NCCc5ccccc54)CC3)C2)cc1)C1CCC1 (stereo not drawn) [compound 85, 1-(1-((1-(4-(cyclobutylsulfonyl)phenyl)azetidin-3-yl)methyl)piperidin-4-yl)-1-cyclopentyl-1,2,3,4-tetrahydroisoquinoline]	0.036 µM	4.2 µM	1.6 µM				
CC(=O)O[C@H]1CCC[C@@H]1C(C#N)(c1ccccc1)C1CCN(CC2CN(c3ccc(S(=O)(=O)C4CC4)cc3)C2)CC1 (mixture of isomers) [compound 187, rac-(1S,2R)-2-(cyano(1-((1-(4-(cyclopropylsulfonyl)phenyl)azetidin-3-yl)methyl)piperidin-4-yl)(phenyl)methyl)cyclopentyl acetate]	0.018 µM			1.9 ± 0.7 µM	1.2 ± 0.3 µM		
CN1Cc2ccccc2C(C2CCCC2)(C2CCN(CC3CN(c4ccc(C#N)cc4)C3)CC2)C1 (stereo not drawn) [compound 45, 4-(3-((4-(4-cyclopentyl-2-methyl-1,2,3,4-tetrahydroisoquinolin-4-yl)piperidin-1-yl)methyl)azetidin-1-yl)benzonitrile]	0.027 µM	5 µM	0.845 ± 0.436 µM				
COC(=O)N[C@H]1CCC[C@@H]1C(C#N)(c1ccccc1)C1CCN(CC2CN(c3ccc(S(=O)(=O)c4ccncc4)cc3)C2)CC1 (mixture of isomers) [Cpd. No. 345, methyl (rac-(1S,2R)-2-(cyano(phenyl)(1-((1-(4-(pyridin-4-ylsulfonyl)phenyl)azetidin-3-yl)methyl)piperidin-4-yl)methyl)cyclopentyl)carbamate]	0.011 µM			0.71 µM	0.54 µM		
